The values below are quoted from earlier work in patent US6387352B1, “Mouthwash compositions” (Erling Johansen, priority 1996, dated 2002).

The conditions of this data set: compared to similar solutions excluding fluoride.

As to `F` [fluoride], the “increase in hardness of dental enamel on addition of fluoride to calcium/phosphate solution” value was “(about) four times increase in hardness”.
